Reference: US9573887B2, “Naphthalene derivative” (Daito Chemix Corporation, priority 2010, dated 2017)
Structures can show the parent of a compound that is named as a salt.

Target: T1, Mouse VCP (Mus musculus, UniProt Q01853)
T1 construct: histidine tag (N); made in house; host or cells: Sf-9 insect cells (baculovirus vector pVL1392)
Experiment: ATPase activity of purified His-tagged VCP, [γ-32P]ATP, liberated phosphate by liquid scintillation
Format: biochemical
Settings: compounds of Examples; ATPase inhibitory activity; 500 ng VCP, 100 μM ATP, 37° C., 10 minutes
Experimental: In one aspect, the effect of VCP regulators for regulating ATPase activity is determined, for example by the following exemplary assay. Mouse VCP cDNA (the amino acid sequence is completely identical among mouse, rat and human) is added with a DNA sequence corresponding to a histidine tag at the amino-terminal, subcloned into a baculovirus vector pVL1392 (BD Bioscience), and expressed in Sf-9 insect cells. The protein is purified with a nickel column. After the purification the concentration of the protein is adjusted to 0.25-0.5 μg/ml and the protein is stored in a solution containing 50 mM TrisCl pH 8.0, 5 mM EDTA, 10% glycerol, and 15 mM DTT at 4° C. 500 ng of the purified VCP is mixed with 100 μM [γ-^32P]ATP (18.5 GBq/mmol) and the test substance in 20 μL of ATPase buffer (20 mM HEPES (pH7.4), 50 mM KCl, 5 mM MgCl2, 15 mM DTT), and incubated at 37° C. for 10 minutes. The enzyme reaction is stopped with addition of 200 μL of an ice-cold solution containing 7% TCA and 1 mM K2HPO4. 50μ of a solution containing 3.75% ammonium molybdate and 0.02M tungstate silicic/3 N H2SO4 is added, followed by 300 μL of n-butylacetic acid, and then the liberated phosphate is extracted into the organic layer. The reaction tube is centrifuged for 5 minutes at 20,000 g to separate the aqueous layer and the organic layer, 200 μL of the organic layer is taken, and the beta ray radiated from the liberated phosphate is quantified with liquid scintillation counter. By measuring the ATPase activity in the presence of the test substance at various concentrations, ATPase inhibitory activity of the test substance is measured.
Mouse VCP cDNA was added with a DNA sequence corresponding to histidine tag at the amino-terminal, subcloned into a baculovirus vector pVL1392 (BD Bioscience), and expressed in Sf-9 insect cells. The protein was purified with a nickel column (GE Healthcare). The concentration of the protein was adjusted to 0.25-0.5 μg/ml and the protein was stored in a solution containing 50 mM TrisCl pH 8.0, 5 mM EDTA, 10% glycerol, and 15 mM DTT.
The ATPase activity was determined as follows. 500 ng of the purified VCP was mixed with 100 μM [γ-32P]ATP (18.5 GBq/mmol) and the test substance in 20 μL of ATPase buffer (20 mM HEPES (pH7.4), 50 mM KCl, 5 mM MgCl2, 15 mM DTT), and incubated at 37° C. for 10 minutes.
The enzyme reaction was stopped with addition of 200 μL of an ice-cold solution containing 7% TCA and 1 mM K2HPO4. 50μ of a solution containing 3.75% ammonium molybdate and 0.02M tungstate silicic/3 NH2SO4 was added, followed by 300 μL of n-butylacetic acid, and then the liberated phosphate was extracted into the organic layer. The reaction tube was centrifuged for 5 minutes at 20,000 g to separate the aqueous layer and the organic layer, 200 μL of the organic layer was taken, and the beta ray radiated from the liberated phosphate was quantified with liquid scintillation counter.
By measuring the ATPase activity in the presence of the test substance at various concentrations, ATPase inhibitory activity of the test substance was measured. IC50 of the each test substance was calculated by applying the measured values to the equation below using GraphPad Prism (GraphPad Software).

T1 sequence (Q01853 whole entry): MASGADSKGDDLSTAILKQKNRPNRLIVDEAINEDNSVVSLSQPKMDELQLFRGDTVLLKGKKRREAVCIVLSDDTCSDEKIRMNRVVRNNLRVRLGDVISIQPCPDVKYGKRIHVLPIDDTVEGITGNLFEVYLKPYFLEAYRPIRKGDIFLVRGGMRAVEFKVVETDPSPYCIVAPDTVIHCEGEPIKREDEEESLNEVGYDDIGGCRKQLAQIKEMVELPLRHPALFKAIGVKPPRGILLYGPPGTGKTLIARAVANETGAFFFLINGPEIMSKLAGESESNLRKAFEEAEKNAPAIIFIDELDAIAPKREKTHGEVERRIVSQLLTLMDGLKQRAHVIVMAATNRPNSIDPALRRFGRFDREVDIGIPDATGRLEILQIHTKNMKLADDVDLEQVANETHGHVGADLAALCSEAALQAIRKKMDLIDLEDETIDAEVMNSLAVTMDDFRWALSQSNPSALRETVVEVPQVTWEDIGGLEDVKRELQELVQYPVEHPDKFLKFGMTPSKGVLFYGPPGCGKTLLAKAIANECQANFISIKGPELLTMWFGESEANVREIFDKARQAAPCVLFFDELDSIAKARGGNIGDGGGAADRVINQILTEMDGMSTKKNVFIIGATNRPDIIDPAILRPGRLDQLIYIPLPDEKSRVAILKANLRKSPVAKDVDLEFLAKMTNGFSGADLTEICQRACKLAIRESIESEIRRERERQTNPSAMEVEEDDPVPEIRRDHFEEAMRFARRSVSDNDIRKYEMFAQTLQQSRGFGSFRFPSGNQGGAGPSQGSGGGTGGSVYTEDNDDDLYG

Compound	IC50 [nM]
Cc1ccc(F)c(-c2ccc(/N=N/c3cc(S(=O)(=O)O)c4ccccc4c3N)cn2)c1 [Example 59, 4-amino-3-[6-(2-fluoro-5-methylphenyl)pyridine-3-ylazo]naphthalene-1-sulfonic acid sodium salt]	380
CCCCOc1ccccc1-c1ccc(/N=N/c2cc(S(=O)(=O)O)c3ccccc3c2N)cn1 [Example 60, 4-amino-3-[6-(2-butoxyphenyl)pyridine-3-ylazo]naphthalene-1-sulfonic acid sodium salt]	250
CCCCCCOc1ccccc1-c1ccc(/N=N/c2cc(S(=O)(=O)O)c3ccccc3c2N)cn1 [Example 61, 4-amino-3-[6-(2-hexyloxyphenyl)pyridine-3-ylazo]naphthalene-1-sulfonic acid sodium salt]	843
CCCCc1ccc(-c2ccc(/N=N/c3cc(S(=O)(=O)O)c4ccccc4c3N)cn2)cc1 [Example 62, 4-amino-3-[6-(4-butylphenyl)pyridine-3-ylazo]naphthalene-1-sulfonic acid sodium salt]	856
Nc1c(/N=N/c2ccc(-c3ccccc3O)nc2)cc(S(=O)(=O)O)c2ccccc12 [Example 63, 4-amino-3-[6-(2-hydroxyphenyl)pyridine-3-ylazo]naphthalene-1-sulfonic acid sodium salt]	807
Nc1c(/N=N/c2ccc(-c3ccccc3OCCCCCCO)nc2)cc(S(=O)(=O)O)c2ccccc12 [Example 64, 4-amino-3-{6-[2-(6-hydroxyhexyloxy)phenyl]pyridine-3-ylazo}naphthalene-1-sulfonic acid sodium salt]	324
Nc1c(/N=N/c2ccc(-c3ccccc3OCCCO)nc2)cc(S(=O)(=O)O)c2ccccc12 [Example 66, 4-amino-3-{6-[2-(3-hydroxypropoxy)phenyl]pyridine-3-ylazo}naphthalene-1-sulfonic acid sodium salt]	232
CC(C)COc1ccccc1-c1ccc(/N=N/c2cc(S(=O)(=O)O)c3ccccc3c2N)cn1 [Example 67, 4-amino-3-[6-(2-isobutoxyphenyl)pyridine-3-ylazo]naphthalene-1-sulfonic acid sodium salt]	130
CC(C)(C)OC(=O)NCCCOc1ccccc1-c1ccc(/N=N/c2cc(S(=O)(=O)O)c3ccccc3c2N)cn1 [Example 68, 4-amino-3-{6-[2-(3-tert-butoxycarbonylaminopropoxy)phenyl]pyridine-3-ylazo}naphthalene-1-sulfonic acid sodium salt]	201
Nc1c(/N=N/c2ccc(-c3ccccc3OCCCNC(=O)c3cccnc3Cl)nc2)cc(S(=O)(=O)O)c2ccccc12 [Example 69, 4-amino-3-[6-(2-{3-[(2-chloropyridine-3-carbonyl)amino]propoxy}phenyl)pyridine-3-ylazo]naphthalene-1-sulfonic acid sodium salt]	90
Nc1c(/N=N/c2ccc(-c3cc(Cl)ccc3O)nc2)cc(S(=O)(=O)O)c2ccccc12 [Example 70, 4-amino-3-[6-(5-chloro-2-hydroxyphenyl)pyridine-3-ylazo]naphthalene-1-sulfonic acid sodium salt]	712
Cc1ccc(-c2ccccc2)c(-c2ccc(/N=N/c3cc(S(=O)(=O)O)c4ccccc4c3N)cn2)c1 [Example 71, 4-amino-3-[6-(4-methylbiphenyl-2-yl)pyridine-3-ylazo]naphthalene-1-sulfonic acid sodium salt]	257
Cc1ccc(-c2ccc(Cl)cc2)c(-c2ccc(/N=N/c3cc(S(=O)(=O)O)c4ccccc4c3N)cn2)c1 [Example 72, 4-amino-3-[6-(4′-chloro-4-methylbiphenyl-2-yl)pyridine-3-ylazo]naphthalene-1-sulfonic acid sodium salt]	796
Nc1c(/N=N/c2ccc(-c3cccc4c3S(=O)(=O)c3ccccc3-4)nc2)cc(S(=O)(=O)O)c2ccccc12 [Example 73, 4-amino-3-[6-(5,5-dioxo-5H-5λ^6-dibenzothiophene-4-yl)pyridine-3-ylazo]naphthalene-1-sulfonic acid sodium salt]	499
Cc1cc(C)cc(-c2ccc(C)cc2-c2ccc(/N=N/c3cc(S(=O)(=O)O)c4ccccc4c3N)cn2)c1 [Example 74, 4-amino-3-[6-(4,3′,5′-trimethylbiphenyl-2-yl)pyridine-3-ylazo]naphthalene-1-sulfonic acid sodium salt]	4000
Cc1ccc(-c2cccc(Cl)c2)c(-c2ccc(/N=N/c3cc(S(=O)(=O)O)c4ccccc4c3N)cn2)c1 [Example 75, 4-amino-3-[6-(3′-chloro-4-methylbiphenyl-2-yl)pyridine-3-ylazo]naphthalene-1-sulfonic acid sodium salt]	924
Nc1c(/N=N/c2ccc(-c3cccc4c3Sc3ccccc3S4)nc2)cc(S(=O)(=O)O)c2ccccc12 [Example 76, 4-amino-3-(6-thianthrene-1-ylpyridine-3-ylazo)naphthalene-1-sulfonic acid sodium salt]	1410
Nc1c(/N=N/c2ccc(-c3ccccc3OCCCNC(=O)c3ccnc(Cl)c3)nc2)cc(S(=O)(=O)O)c2ccccc12 [Example 77, 4-amino-3-[6-(2-{3-[(2-chloropyridine-4-carbonyl)amino]propoxy}phenyl)pyridine-3-ylazo]naphthalene-1-sulfonic acid sodium salt]	366
Nc1c(/N=N/c2ccc(-c3ccccc3OCCCN3C(=O)c4ccccc4C3=O)nc2)cc(S(=O)(=O)O)c2ccccc12 [Example 78, 4-amino-3-(6-{2-[3-(1,3-dioxo-1,3-dihydroisoindole-2-yl)propoxy]phenyl}pyridine-3-ylazo)naphthalene-1-sulfonic acid sodium salt]	402
Cc1cc(F)ccc1-c1ncc(/N=N/c2cc(S(=O)(=O)O)c3ccccc3c2N)cc1C [Example 79, 4-amino-3-[6-(4-fluoro-2-methylphenyl)-5-methylpyridine-3-ylazo]naphthalene-1-sulfonic acid sodium salt]	798
Nc1c(/N=N/c2ccc(-c3c(OCc4cccnc4)ccc4c3sc3ccccc34)nc2)cc(S(=O)(=O)O)c2ccccc12 [Example 80, 4-amino-3-{6-″3-(pyridine-3-ylmethoxy)dibenzothiophene-4-yl]pyridine-3-ylazo}naphthalene-1-sulfonic acid sodium salt]	329
Nc1c(/N=N/c2ccc(-c3c(OCCCNC(=O)c4cccnc4Cl)ccc4c3sc3ccccc34)nc2)cc(S(=O)(=O)O)c2ccccc12 [Example 81, 4-amino-3-[6-(3-{3-[(2-chloropyridine-3-carbonyl)amino]propoxy}dibenzothiophene-4-yl)pyridine-3-ylazo]naphthalene-1-sulfonic acid sodium salt]	207
Nc1c(/N=N/c2ccc(-c3c(OCCCO)ccc4c3sc3ccccc34)nc2)cc(S(=O)(=O)O)c2ccccc12 [Example 82, 4-amino-3-{6-[3-(3-hydroxypropoxy)dibenzothiophene-4-yl]pyridine-3-ylazo}naphthalene-1-sulfonic acid sodium salt]	289
Nc1c(/N=N/c2ccc(-c3cccc4cccnc34)nc2)cc(S(=O)(=O)O)c2ccccc12 [Example 83, 4-amino-3-(6-quinoline-8-ylpyridine-3-ylazo)naphthalene-1-sulfonic acid sodium salt]	350
Cc1ccc2cccc(-c3ccc(/N=N/c4cc(S(=O)(=O)O)c5ccccc5c4N)cn3)c2n1 [Example 84, 4-amino-3-[6-(2-methylquinoline-8-yl)pyridine-3-ylazo]naphthalene-1-sulfonic acid sodium salt]	567
Cc1cc(/N=N/c2cc(S(=O)(=O)O)c3ccccc3c2N)cnc1-c1cccc2c1sc1ccccc12 [Example 85, 4-amino-3-(6-dibenzothiophene-4-yl-5-methylpyridine-3-ylazo)naphthalene-1-sulfonic acid sodium salt]	1050
